From patent publication US20200060276A1, “THIAZOLE COMPOUND AND HERBICIDE” (OAT Agrio Co., Ltd., priority 2017, published 2020)

Experiments:
Assay type in all cases: in vivo
[1] = system: Monochoria vaginalis; experiment: Test for Herbicidal Effect in Flooding Treatment (#1), MONVA; conditions: for MONVA #1 herbicidal effect (growth inhibition grade): flooding treatment at seeding, dose 2 kg/ha, visual observation on day 21; for MONVA #1 herbicidal effect (growth inhibition rating 0-5): flooding treatment #1
Description: (§1) (#1) Test for Herbicidal Effect in Flooding Treatment: Styrol cups each having an opening diameter of 8 cm (about 52 cm^2) were respectively filled with soil (45 ml) which had been passed through a sieve (2 mm). Water (about 115 ml) was mixed with the soil such that the soil was flooded. After the soil stood still for 24 hours, Monochoria vaginalis, Echinochloa crus-galli (L.) P. Beauv. var. formosensis Ohwi, Cyperus difformis (umbrella sedge), and Scirpus juncoides were seeded. Each of the compounds of the present invention was dissolved in acetone, and the obtained product was then diluted with water containing Tween 80®. Each of the resultant chemical solutions was dropped on the entire surface of an associated one of treatment sections, so that each section was treated with 1 ml of the respective chemical solution (a dose of 2 kg/ha). After the treatment, the plants were grown in a glasshouse. On day 21, a survey was conducted on the herbicidal activity by visual observation, and evaluation was made according to the following criteria. 0: Growth inhibition effect is less than 10%. 1: Growth inhibition effect is equal to or greater than 10%, and less than 30%. 2; Growth inhibition effect is equal to or greater than 30%, and less than 50%. 3: Growth inhibition effect equal to or greater than 50%, and less than 70%. 4: Growth inhibition effect is equal to or greater than 70%, and less than 90%. 5: Growth inhibition effect is equal to or greater than 90%, or complete withering is achieved. ECHDG=Echinochloa crus-galli (L.) P. Beauv. var. formosensis Ohwi, MONVA=Monochoria vaginalis, SCIJU=Scirpus juncoides, CYMIC=Cyperus microiria.

[2] = system: Scirpus juncoides; experiment: Test for Herbicidal Effect in Flooding Treatment (#1), SCIJU; conditions: for SCIJU #1 herbicidal effect (growth inhibition grade): flooding treatment at seeding, dose 2 kg/ha, visual observation on day 21; for SCIJU #1 herbicidal effect (growth inhibition rating 0-5): flooding treatment #1
Description: as §1

[3] = system: Echinochloa crus-galli (L.) P. Beauv. var. formosensis Ohwi; experiment: Test for Herbicidal Effect in Flooding Treatment (#1), ECHDG; conditions: for ECHDG #1 herbicidal effect (growth inhibition grade): flooding treatment at seeding, dose 2 kg/ha, visual observation on day 21; for ECHDG #1 herbicidal effect (growth inhibition rating 0-5): flooding treatment #1
Description: as §1

[4] = system: Echinochloa crus-galli (L.) P. Beauv. var. formosensis Ohwi; experiment: Test for Herbicidal Effect in Flooding Treatment (#2), ECHDG at 2-2.5 leaf stage; conditions: flooding treatment at 2-2.5 leaf stage, dose 0.2 kg/ha, visual observation on day 21
Description: (#2) Test for Herbicidal Effect in Flooding Treatment: Styrol cups each having an opening diameter of 13 cm (about 130 cm^2) were respectively filled with muddy soil (500 ml). Water (about 300 ml) was mixed with the soil such that the soil was flooded. After the soil stood still for 24 hours, Echinochloa crus-galli (L.) P. Beauv. var. formosensis Ohwi was seeded. When the Echinochloa crus-galli (L.) P. Beauv. var. formosensis Ohwi grew to reach 2-2.5 leaf stage, chemical solutions were dropped on the entire surface of treatment sections, so that each section is treated with 1 ml of the respective chemical solution (a dose of 0.2 kg/ha). Each of the chemical solutions was prepared by dissolving associated one of the compounds of the present invention in acetone, followed by dilution with water containing Tween 80 g. After the treatment, the plants were grown in a glasshouse. On day 21, a survey was conducted on the herbicidal activity by visual observation, and evaluation was made according to the following criteria. 0: Growth inhibition effect is less than 10%. 1: Growth inhibition effect is equal to or greater than 10%, and less than 30%. 2; Growth inhibition effect is equal to or greater than 30%, and less than 50%. 3: Growth inhibition effect equal to or greater than 50%, and less than 70%. 4: Growth inhibition effect is equal to or greater than 70%, and less than 90%. 5: Growth inhibition effect is equal to or greater than 90%, or complete withering is achieved. ECHDG=Echinochloa crus-galli (L.) P. Beauv. var. formosensis Ohwi, MONVA=Monochoria vaginalis, SCIJU=Scirpus juncoides, CYMIC=Cyperus microiria. The herbicidal activity of the following comparative compounds A and B (the compounds disclosed Japanese Unexamined Patent Publication No. 2003-096059) were evaluated in a manner pursuant to Test Example 1. (#2).

CC(c1c(F)cccc1OCC(F)F)S(=O)(=O)c1ncc(Cl)s1 (racemic) [Compound 1C-142]
MONVA #1 herbicidal effect (growth inhibition grade) [1]: 5 (Growth inhibition effect is equal to or greater than 90%, or complete withering is achieved) | SCIJU #1 herbicidal effect (growth inhibition grade) [2]: 5 (Growth inhibition effect is equal to or greater than 90%, or complete withering is achieved) | ECHDG #1 herbicidal effect (growth inhibition grade) [3]: 5 (Growth inhibition effect is equal to or greater than 90%, or complete withering is achieved) | ECHDG (2-2.5L) #2 herbicidal effect (growth inhibition grade) [4]: 5 (Growth inhibition effect is equal to or greater than 90%, or complete withering is achieved)

COC(=O)C(c1c(F)cccc1OC(F)F)S(=O)(=O)c1ncc(Cl)s1 (racemic) [Compound 1C-145]
MONVA #1 herbicidal effect (growth inhibition grade) [1]: 5 (Growth inhibition effect is equal to or greater than 90%, or complete withering is achieved) | SCIJU #1 herbicidal effect (growth inhibition grade) [2]: 5 (Growth inhibition effect is equal to or greater than 90%, or complete withering is achieved) | ECHDG #1 herbicidal effect (growth inhibition grade) [3]: 5 (Growth inhibition effect is equal to or greater than 90%, or complete withering is achieved) | ECHDG (2-2.5L) #2 herbicidal effect (growth inhibition grade) [4]: 5 (Growth inhibition effect is equal to or greater than 90%, or complete withering is achieved)

CC(=O)C(c1c(F)cccc1OC(F)F)S(=O)(=O)c1ncc(Cl)s1 (racemic) [Compound 1C-146]
MONVA #1 herbicidal effect (growth inhibition grade) [1]: 5 (Growth inhibition effect is equal to or greater than 90%, or complete withering is achieved) | SCIJU #1 herbicidal effect (growth inhibition grade) [2]: 5 (Growth inhibition effect is equal to or greater than 90%, or complete withering is achieved) | ECHDG #1 herbicidal effect (growth inhibition grade) [3]: 5 (Growth inhibition effect is equal to or greater than 90%, or complete withering is achieved) | ECHDG (2-2.5L) #2 herbicidal effect (growth inhibition grade) [4]: 5 (Growth inhibition effect is equal to or greater than 90%, or complete withering is achieved)

CC(c1c(F)cccc1OCCC(F)(F)F)S(=O)(=O)c1ncc(Cl)s1 (racemic) [Compound 1C-149]
MONVA #1 herbicidal effect (growth inhibition grade) [1]: 5 (Growth inhibition effect is equal to or greater than 90%, or complete withering is achieved) | SCIJU #1 herbicidal effect (growth inhibition grade) [2]: 5 (Growth inhibition effect is equal to or greater than 90%, or complete withering is achieved) | ECHDG #1 herbicidal effect (growth inhibition grade) [3]: 5 (Growth inhibition effect is equal to or greater than 90%, or complete withering is achieved) | ECHDG (2-2.5L) #2 herbicidal effect (growth inhibition grade) [4]: 4 (Growth inhibition effect is equal to or greater than 70%, and less than 90%)

CC(c1c(Cl)cccc1OCCC(F)(F)F)S(=O)(=O)c1ncc(Cl)s1 (racemic) [Compound 1C-150]
MONVA #1 herbicidal effect (growth inhibition grade) [1]: 5 (Growth inhibition effect is equal to or greater than 90%, or complete withering is achieved) | SCIJU #1 herbicidal effect (growth inhibition grade) [2]: 5 (Growth inhibition effect is equal to or greater than 90%, or complete withering is achieved) | ECHDG #1 herbicidal effect (growth inhibition grade) [3]: 5 (Growth inhibition effect is equal to or greater than 90%, or complete withering is achieved)

[O-][S+](Cc1c(F)cccc1OCC(F)F)c1ncc(Cl)s1 (stereo not shown) [Compound 1B-7]
MONVA #1 herbicidal effect (growth inhibition rating 0-5) [1]: 5 (Growth inhibition effect is equal to or greater than 90%, or complete withering is achieved) | SCIJU #1 herbicidal effect (growth inhibition rating 0-5) [2]: 5 (Growth inhibition effect is equal to or greater than 90%, or complete withering is achieved) | ECHDG #1 herbicidal effect (growth inhibition rating 0-5) [3]: 5 (Growth inhibition effect is equal to or greater than 90%, or complete withering is achieved)

[O-][S+](Cc1c(Cl)cccc1OCC(F)(F)C(F)(F)F)c1ncc(Cl)s1 (stereo not shown) [Compound 1B-14]
MONVA #1 herbicidal effect (growth inhibition rating 0-5) [1]: 5 (Growth inhibition effect is equal to or greater than 90%, or complete withering is achieved) | SCIJU #1 herbicidal effect (growth inhibition rating 0-5) [2]: 5 (Growth inhibition effect is equal to or greater than 90%, or complete withering is achieved) | ECHDG #1 herbicidal effect (growth inhibition rating 0-5) [3]: 5 (Growth inhibition effect is equal to or greater than 90%, or complete withering is achieved)

[O-][S+](Cc1c(OCC(F)F)cccc1OCC(F)F)c1ncc(Cl)s1 (stereo not shown) [Compound 1B-15]
MONVA #1 herbicidal effect (growth inhibition rating 0-5) [1]: 5 (Growth inhibition effect is equal to or greater than 90%, or complete withering is achieved) | SCIJU #1 herbicidal effect (growth inhibition rating 0-5) [2]: 5 (Growth inhibition effect is equal to or greater than 90%, or complete withering is achieved) | ECHDG #1 herbicidal effect (growth inhibition rating 0-5) [3]: 3 (Growth inhibition effect equal to or greater than 50%, and less than 70%)

CCOC(=O)C(F)(F)Oc1cccc(Cl)c1CS(=O)(=O)c1ncc(Cl)s1 [Compound 1C-64]
MONVA #1 herbicidal effect (growth inhibition grade) [1]: 5 (Growth inhibition effect is equal to or greater than 90%, or complete withering is achieved) | SCIJU #1 herbicidal effect (growth inhibition grade) [2]: 5 (Growth inhibition effect is equal to or greater than 90%, or complete withering is achieved) | ECHDG #1 herbicidal effect (growth inhibition grade) [3]: 5 (Growth inhibition effect is equal to or greater than 90%, or complete withering is achieved)

O=S(=O)(Cc1c(OCC(F)F)cccc1OCC(F)F)c1ncc(Cl)s1 [Compound 1C-129]
MONVA #1 herbicidal effect (growth inhibition grade) [1]: 5 (Growth inhibition effect is equal to or greater than 90%, or complete withering is achieved) | SCIJU #1 herbicidal effect (growth inhibition grade) [2]: 4 (Growth inhibition effect is equal to or greater than 70%, and less than 90%) | ECHDG #1 herbicidal effect (growth inhibition grade) [3]: 5 (Growth inhibition effect is equal to or greater than 90%, or complete withering is achieved)

CCOc1ccc(Cl)cc1C(F)(F)S(=O)(=O)c1nc(F)c(Cl)s1 [Compound 1C-139]
MONVA #1 herbicidal effect (growth inhibition grade) [1]: 5 (Growth inhibition effect is equal to or greater than 90%, or complete withering is achieved) | SCIJU #1 herbicidal effect (growth inhibition grade) [2]: 5 (Growth inhibition effect is equal to or greater than 90%, or complete withering is achieved) | ECHDG (2-2.5L) #2 herbicidal effect (growth inhibition grade) [4]: 1 (Growth inhibition effect is equal to or greater than 10%, and less than 30%)

COc1ccc(Cl)c(CS(=O)(=O)c2ncc(C(F)(F)F)s2)c1F [Compound 1C-167]
MONVA #1 herbicidal effect (growth inhibition grade) [1]: 5 (Growth inhibition effect is equal to or greater than 90%, or complete withering is achieved) | SCIJU #1 herbicidal effect (growth inhibition grade) [2]: 5 (Growth inhibition effect is equal to or greater than 90%, or complete withering is achieved) | ECHDG #1 herbicidal effect (growth inhibition grade) [3]: 5 (Growth inhibition effect is equal to or greater than 90%, or complete withering is achieved)

CS(=O)(=O)c1ccc(CS(=O)(=O)c2ncc(Cl)s2)cc1 [Compound 1C-168]
MONVA #1 herbicidal effect (growth inhibition grade) [1]: 5 (Growth inhibition effect is equal to or greater than 90%, or complete withering is achieved) | SCIJU #1 herbicidal effect (growth inhibition grade) [2]: 5 (Growth inhibition effect is equal to or greater than 90%, or complete withering is achieved) | ECHDG #1 herbicidal effect (growth inhibition grade) [3]: 5 (Growth inhibition effect is equal to or greater than 90%, or complete withering is achieved)

C#CCN(C)c1cccc(F)c1CS(=O)(=O)c1ncc(Cl)s1 [Compound 1C-169]
MONVA #1 herbicidal effect (growth inhibition grade) [1]: 5 (Growth inhibition effect is equal to or greater than 90%, or complete withering is achieved) | SCIJU #1 herbicidal effect (growth inhibition grade) [2]: 5 (Growth inhibition effect is equal to or greater than 90%, or complete withering is achieved) | ECHDG #1 herbicidal effect (growth inhibition grade) [3]: 5 (Growth inhibition effect is equal to or greater than 90%, or complete withering is achieved)

O=S(=O)(Cc1c(F)cccc1OS(=O)(=O)C(F)(F)F)c1ncc(Cl)s1 [Compound 1C-185]
SCIJU #1 herbicidal effect (growth inhibition grade) [2]: 5 (Growth inhibition effect is equal to or greater than 90%, or complete withering is achieved) | ECHDG #1 herbicidal effect (growth inhibition grade) [3]: 5 (Growth inhibition effect is equal to or greater than 90%, or complete withering is achieved) | ECHDG (2-2.5L) #2 herbicidal effect (growth inhibition grade) [4]: 5 (Growth inhibition effect is equal to or greater than 90%, or complete withering is achieved)
